This data set can be described thus: activity coefficient (dimensionless); of the first substance listed, at infinite dilution; xn = mol fraction of the nth substance listed. Particulars: 101 kPa, Liquid, Chromatography, x1 = 0.

Molecules are shown by their SMILES. Numbers after ± are expanded uncertainties.

Take `C=CC=O` [2-propenal] + O: the activity coefficient stood at 20.9 ± 0.8 (298.15 K); 21.5 ± 0.8 (301.15 K); 21.4 ± 0.8 (303.15 K); 21.7 ± 0.8 (305.15 K); 22.4 ± 0.8 (308.15 K); 22.6 ± 0.8 (310.15 K). Besides, the activity coefficient worked out at 23.1 ± 0.9 (313.15 K); 23.5 ± 0.9 (315.15 K); 24 ± 0.9 (318.15 K); 24.1 ± 0.9 (320.15 K); 24.1 ± 0.9 (323.15 K); 24.3 ± 0.9 (325.15 K). Besides, the activity coefficient (328.15 K) came to 24.3 ± 0.9, the activity coefficient (330.15 K) stood at 24.5 ± 0.9 and the activity coefficient (333.15 K) was found to be 24.4 ± 1.
Take `C/C=C/C=O` [(E)-2-butenal] + O: the activity coefficient by setting is: (298.15 K) 39 ± 1.6; (308.15 K) 42.8 ± 1.6; (313.15 K) 44.4 ± 1.8; (318.15 K) 46.2 ± 1.9; (323.15 K) 47 ± 2.1; (328.15 K) 47.3 ± 2. Moreover, the activity coefficient (333.15 K) is 48 ± 1.9.
As to `CCCCO` [butan-1-ol] + O, the activity coefficient runs as follows: (303.15 K) 52 ± 3; (308.15 K) 57 ± 2; (313.15 K) 58 ± 3; (318.15 K) 64 ± 3; (323.15 K) 69 ± 3; (328.15 K) 72 ± 3. The activity coefficient by setting is: (333.15 K) 80 ± 3; (338.15 K) 78 ± 3.
On to `c1ccoc1` [furan] + O, for which the activity coefficient worked out at 415 ± 20 (298.15 K); 412 ± 20 (299.15 K); 403 ± 19 (301.15 K); 397 ± 19 (303.15 K); 394 ± 19 (305.15 K); 380 ± 19 (306.15 K). In addition, the activity coefficient (308.15 K) is 372 ± 19, the activity coefficient (311.15 K) was determined as 366 ± 22 and the activity coefficient (313.15 K) was determined as 356 ± 20.
Take `CCCCC=O` [pentanal] + O: the activity coefficient reads like this: (298.15 K) 220 ± 8; (303.15 K) 260 ± 10; (308.15 K) 276 ± 10; (313.15 K) 302 ± 12; (318.15 K) 324 ± 12; (323.15 K) 339 ± 14. Also, under “328.15 K”, the activity coefficient was 350 ± 14.

Values taken from the NIST ThermoML archive (doi:10.1016/j.fluid.2015.01.010).
